One data set concerns the target T1, PDGFRα (Homo sapiens, UniProt P16234).
T1 construct: purchased Millipore 14-467 (lot 26321_ACTI)
Kind of data set: Caliper biochemical assay, PDGFRα. To be noted: Table 6. A digest of the protocol: (§1)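 Kinase, FAM-labelled peptide substrate, ATP and Mn^2+ incubated with compound for 3 h at 25° C, then quenched with EDTA buffer. Substrate and phosphorylated product separated by microfluidic electrophoresis and quantified by fluorescence intensity; no-enzyme wells define 100% inhibition.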

The nature of the next data set: Kinetic solubility assay. In kind it is physicochemical. To be noted: kinetic solubility, 50 mM PB (pH 7.4), shaken 24 hours at RT. A digest of the protocol:
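Test compounds from 10 mM DMSO stock were diluted in 50 mM phosphate buffer, pH 7.4, and shaken for 24 h at RT. After PTFE filtration and centrifugation, filtrate concentration was quantified by UPLC-UV/HPLC-UV against a standard curve.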

The target in a further data set is T2, CSF-1R (Homo sapiens, UniProt P07333).
T2 construct: purchased Invitrogen PV3249 (lot 662393N)
Kind of data set: Caliper biochemical assay, CSF-1R. To be noted: Table 6. The method in brief:
as §1

The target of another data set is T3, wtKIT (Homo sapiens, UniProt P10721).
T3 construct: 1888289AM in the reaction mixtures
The data set is described as follows: Caliper biochemical assay, wtKIT. The note with it: Table 6, read-out: KIT Biochemical IC50 avg. The method in brief:
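Enzyme (5.0 nM wtKIT), 1 μM FAM-labelled peptide, 400 μM ATP and 10 mM MnCl2 in HEPES pH 7.5 with 1% DMSO, incubated 3 h at 25° C. EDTA quench; substrate and phosphoproduct separated by microfluidic electrophoresis and quantified by fluorescence.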

In data set [1] the target is T4, BCRP (BCRP-MDCKII monolayer) (Homo sapiens, UniProt Q9UNQ0).
T4 construct: host or cells: MDCKII (canine kidney) cells
T4 sequence (Q9UNQ0 1-655): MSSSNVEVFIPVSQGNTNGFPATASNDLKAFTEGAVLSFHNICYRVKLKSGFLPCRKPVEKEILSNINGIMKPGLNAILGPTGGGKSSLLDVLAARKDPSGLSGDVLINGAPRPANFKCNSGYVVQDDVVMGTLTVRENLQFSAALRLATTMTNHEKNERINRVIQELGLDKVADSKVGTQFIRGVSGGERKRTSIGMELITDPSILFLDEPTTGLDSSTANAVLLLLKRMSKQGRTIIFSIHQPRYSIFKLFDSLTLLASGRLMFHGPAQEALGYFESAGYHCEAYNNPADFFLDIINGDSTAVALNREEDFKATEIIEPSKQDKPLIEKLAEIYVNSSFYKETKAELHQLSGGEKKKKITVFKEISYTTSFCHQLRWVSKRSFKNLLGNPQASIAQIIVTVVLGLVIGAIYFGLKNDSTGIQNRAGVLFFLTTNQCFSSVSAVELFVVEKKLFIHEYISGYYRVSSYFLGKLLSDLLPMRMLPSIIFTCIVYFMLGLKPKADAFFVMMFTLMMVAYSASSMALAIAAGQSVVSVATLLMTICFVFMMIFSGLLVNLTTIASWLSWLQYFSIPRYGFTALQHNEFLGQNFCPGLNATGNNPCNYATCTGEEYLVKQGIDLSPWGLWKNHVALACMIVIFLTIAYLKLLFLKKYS
The data set is described as follows: MDCKII-BCRP bidirectional transport assay. In kind it is in vitro ADME. To be noted: for MDCK-BCRP: Papp A-B: apical to basolateral. The method in brief:
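Bidirectional A→B and B→A transport across PreadyPort BCRP-MDCKII monolayers (days 12–15) was run in duplicate for 120 min at 37° C, 5% CO2 after a 15 min preincubation. Compound levels were measured by LC-MS/MS. Papp and recovery were calculated, with efflux ratio indicating transporter engagement.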

T2 sequence (P07333 20-972): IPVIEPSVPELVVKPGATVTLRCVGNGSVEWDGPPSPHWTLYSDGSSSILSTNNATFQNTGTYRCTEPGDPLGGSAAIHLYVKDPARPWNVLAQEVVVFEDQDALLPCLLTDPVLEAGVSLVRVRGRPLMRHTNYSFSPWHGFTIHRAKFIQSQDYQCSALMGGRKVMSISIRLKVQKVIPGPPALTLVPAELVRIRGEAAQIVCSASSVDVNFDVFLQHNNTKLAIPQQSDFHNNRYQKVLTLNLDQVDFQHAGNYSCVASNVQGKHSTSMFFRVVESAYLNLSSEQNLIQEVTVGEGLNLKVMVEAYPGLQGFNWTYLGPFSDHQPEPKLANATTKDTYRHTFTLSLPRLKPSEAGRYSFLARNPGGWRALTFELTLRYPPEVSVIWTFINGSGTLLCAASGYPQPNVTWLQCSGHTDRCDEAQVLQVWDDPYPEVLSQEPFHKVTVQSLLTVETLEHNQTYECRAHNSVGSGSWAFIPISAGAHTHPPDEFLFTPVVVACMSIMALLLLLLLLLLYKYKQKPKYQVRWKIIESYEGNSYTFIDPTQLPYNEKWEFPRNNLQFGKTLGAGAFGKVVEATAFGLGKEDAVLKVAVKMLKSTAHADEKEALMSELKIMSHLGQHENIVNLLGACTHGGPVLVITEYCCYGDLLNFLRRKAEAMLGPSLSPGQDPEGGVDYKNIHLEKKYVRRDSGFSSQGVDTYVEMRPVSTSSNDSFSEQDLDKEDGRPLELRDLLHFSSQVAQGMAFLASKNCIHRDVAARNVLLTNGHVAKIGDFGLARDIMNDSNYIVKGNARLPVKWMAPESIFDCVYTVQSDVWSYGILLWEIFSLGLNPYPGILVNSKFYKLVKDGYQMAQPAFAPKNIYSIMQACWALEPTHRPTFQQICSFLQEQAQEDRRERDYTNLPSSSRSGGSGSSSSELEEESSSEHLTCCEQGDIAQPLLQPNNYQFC
T3 sequence (P10721 26-976): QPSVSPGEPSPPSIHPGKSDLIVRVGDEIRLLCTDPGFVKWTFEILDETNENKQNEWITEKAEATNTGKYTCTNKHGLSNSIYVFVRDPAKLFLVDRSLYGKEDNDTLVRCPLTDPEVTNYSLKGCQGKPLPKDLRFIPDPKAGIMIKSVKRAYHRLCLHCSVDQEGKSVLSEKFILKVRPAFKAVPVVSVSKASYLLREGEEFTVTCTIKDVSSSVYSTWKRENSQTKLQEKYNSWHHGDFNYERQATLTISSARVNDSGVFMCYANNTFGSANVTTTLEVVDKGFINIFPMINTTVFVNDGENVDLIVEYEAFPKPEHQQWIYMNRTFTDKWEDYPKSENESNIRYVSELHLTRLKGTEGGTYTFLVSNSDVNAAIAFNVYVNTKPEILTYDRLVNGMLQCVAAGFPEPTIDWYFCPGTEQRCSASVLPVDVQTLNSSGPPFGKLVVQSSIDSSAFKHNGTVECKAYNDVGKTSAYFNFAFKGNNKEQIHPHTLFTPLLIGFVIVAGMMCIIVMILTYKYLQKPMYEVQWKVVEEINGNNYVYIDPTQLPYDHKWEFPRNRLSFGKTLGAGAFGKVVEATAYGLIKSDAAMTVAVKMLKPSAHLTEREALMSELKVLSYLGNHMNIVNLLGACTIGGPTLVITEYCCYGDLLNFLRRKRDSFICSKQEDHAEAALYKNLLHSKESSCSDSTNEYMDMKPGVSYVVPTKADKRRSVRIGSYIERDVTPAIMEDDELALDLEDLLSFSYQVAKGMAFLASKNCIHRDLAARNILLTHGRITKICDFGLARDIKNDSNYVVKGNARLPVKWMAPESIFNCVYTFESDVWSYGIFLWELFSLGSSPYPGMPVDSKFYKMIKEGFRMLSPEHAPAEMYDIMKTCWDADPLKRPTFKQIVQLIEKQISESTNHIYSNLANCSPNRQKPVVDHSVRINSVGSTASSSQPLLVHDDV
T1 sequence (P16234 24-1089): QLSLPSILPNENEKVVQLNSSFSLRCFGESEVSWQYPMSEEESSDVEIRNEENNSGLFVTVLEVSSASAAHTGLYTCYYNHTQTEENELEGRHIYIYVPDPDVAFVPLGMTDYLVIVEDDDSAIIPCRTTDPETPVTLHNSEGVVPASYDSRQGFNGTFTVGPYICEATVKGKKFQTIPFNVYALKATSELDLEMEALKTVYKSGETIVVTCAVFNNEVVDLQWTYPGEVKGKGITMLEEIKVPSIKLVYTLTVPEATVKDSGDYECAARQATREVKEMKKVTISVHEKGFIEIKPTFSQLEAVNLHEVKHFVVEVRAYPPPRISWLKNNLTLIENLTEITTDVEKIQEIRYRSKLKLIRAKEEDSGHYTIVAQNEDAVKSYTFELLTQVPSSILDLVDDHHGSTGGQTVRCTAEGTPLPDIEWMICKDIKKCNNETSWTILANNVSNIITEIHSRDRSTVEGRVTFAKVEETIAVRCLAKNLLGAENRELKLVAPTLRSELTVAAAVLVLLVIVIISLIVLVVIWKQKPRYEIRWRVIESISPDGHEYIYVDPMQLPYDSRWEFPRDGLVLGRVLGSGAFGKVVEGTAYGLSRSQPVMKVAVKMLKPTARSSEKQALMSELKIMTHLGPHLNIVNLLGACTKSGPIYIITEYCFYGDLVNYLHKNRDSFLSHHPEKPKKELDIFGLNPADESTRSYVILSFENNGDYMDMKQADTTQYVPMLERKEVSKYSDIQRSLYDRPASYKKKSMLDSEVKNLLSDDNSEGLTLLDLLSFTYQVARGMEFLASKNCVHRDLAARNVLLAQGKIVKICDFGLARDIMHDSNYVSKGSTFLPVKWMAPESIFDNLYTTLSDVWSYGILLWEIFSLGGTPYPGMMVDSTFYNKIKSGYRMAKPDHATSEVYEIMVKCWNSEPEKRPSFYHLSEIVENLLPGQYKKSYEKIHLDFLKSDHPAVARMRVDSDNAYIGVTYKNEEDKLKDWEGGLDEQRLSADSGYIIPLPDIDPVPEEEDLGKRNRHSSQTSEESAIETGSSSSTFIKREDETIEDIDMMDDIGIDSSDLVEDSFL

Turning to `COC(=O)N1CC(c2nc(-c3ccc(C)c(NC(=O)c4cnc5cc(O[C@@H](C)CO)ccn45)c3)no2)C1` (single isomer, unassigned) [Compound I-217], the IC50 on PDGFRα was 50 to 500 nM; on CSF-1R, at most 50 nM; on wtKIT, at most 50 nM. In addition, in “Kinetic solubility assay”, the “Solubility (μM)” value was “** (a solubility greater than 10 μM and less than or equal to 50 μM)”. In addition, in data set [1], the “MDCK-BCRP: Efflux Ratio” value was found to be 28.1. Also, the “MDCK-BCRP: Papp A-B” value in data set [1] is listed as 0.86 10^−6 cm/s.

In the case of `Cc1ccc(-c2noc(CC(O)C(F)F)n2)cc1NC(=O)c1cnc2ccccn12` (stereo not drawn) [Compound I-114], the IC50 was 500 to 5000 nM on PDGFRα, 50 to 500 nM against CSF-1R and at most 50 nM on wtKIT. For the same molecule, in the data set “Kinetic solubility assay”, the “Solubility (μM)” value is given as “**** (a solubility less than or equal to 2 μM)”. Besides, the “MDCK-BCRP: Efflux Ratio” value in data set [1] turned out to be 8.07. Further, the “MDCK-BCRP: Papp A-B” value in data set [1] was 3.03 10^−6 cm/s.

Turning to `Cc1ccc(-c2noc(C3COC3)n2)cc1NC(=O)c1cnc2ccccn12` [Compound I-138], the half-inhibitory concentration (IC50) against PDGFRα is 500 to 5000 nM; at CSF-1R, at most 50 nM; on wtKIT it was at most 50 nM. Also, in the data set “Kinetic solubility assay”, the “Solubility (μM)” value is reported as “**** (a solubility less than or equal to 2 μM)”. In addition, the “MDCK-BCRP: Efflux Ratio” value in data set [1] was found to be 5.11. The “MDCK-BCRP: Papp A-B” value in data set [1] was 10.4 10^−6 cm/s.

Turning to `O=C(Nc1cc(-c2noc([C@H]3C[C@@H]3F)n2)ccc1Cl)c1cnc2ccccn12` [Compound I-341], the IC50 is 50 to 500 nM against PDGFRα, at most 50 nM against CSF-1R and at most 50 nM on wtKIT. The “Solubility (μM)” value in the data set “Kinetic solubility assay” is listed as “**** (a solubility less than or equal to 2 μM)”. Moreover, the “MDCK-BCRP: Efflux Ratio” value in data set [1] is on record as 0.84. Moreover, the “MDCK-BCRP: Papp A-B” value in data set [1] is on record as 10.1 10^−6 cm/s.

As to `COC(=O)N1CC(c2nc(-c3ccc(C)c(NC(=O)c4cnn5ccc(Br)cc45)c3)no2)C1` [Compound I-280], the values for the IC50 on PDGFRα, at CSF-1R and at wtKIT were 5000 to 30000 nM, at most 50 nM and at most 50 nM, respectively. Moreover, the “Solubility (μM)” value in “Kinetic solubility assay” is recorded as “**** (a solubility less than or equal to 2 μM)”. The “MDCK-BCRP: Efflux Ratio” value in data set [1] was 2.55. Also, in data set [1], the “MDCK-BCRP: Papp A-B” value is listed as 5.07 10^−6 cm/s.

Regarding `Cc1nc(-c2ccc(C)c(NC(=O)c3cnc4cc(C(F)F)ccn34)c2)no1` [Compound I-134], the half-maximal inhibitory concentration (IC50) against PDGFRα was 500 to 5000 nM; against CSF-1R it was 500 to 5000 nM; on wtKIT, at most 50 nM. Besides, in the data set “Kinetic solubility assay”, the “Solubility (μM)” value is listed as “**** (a solubility less than or equal to 2 μM)”. The “MDCK-BCRP: Efflux Ratio” value in data set [1] turned out to be 2.12. Further, the “MDCK-BCRP: Papp A-B” value in data set [1] is on record as 7.85 10^−6 cm/s.

Consider `Cc1ccc(-c2noc([C@H]3C[C@@H]3F)n2)cc1NC(=O)c1cnc2ccc(F)cn12` [Compound I-288], for which the values for the IC50 at PDGFRα, on CSF-1R and on wtKIT were 500 to 5000 nM, 50 to 500 nM and at most 50 nM, respectively. Besides, the “Solubility (μM)” value in the data set “Kinetic solubility assay” is on record as “**** (a solubility less than or equal to 2 μM)”. Moreover, in data set [1], the “MDCK-BCRP: Efflux Ratio” value came out at 1.01. Besides, the “MDCK-BCRP: Papp A-B” value in data set [1] is reported as 7.81 10^−6 cm/s.

Turning to `Cc1ccc(-c2noc([C@H](C)O)n2)cc1NC(=O)c1cnc2ccccn12` [Compound I-271], the results for the IC50 against PDGFRα, against CSF-1R and at wtKIT were 500 to 5000 nM, 50 to 500 nM and at most 50 nM, respectively. Further, the “Solubility (μM)” value in the data set “Kinetic solubility assay” is reported as “* (a solubility greater than 50 μM)”. Also, the “MDCK-BCRP: Efflux Ratio” value in data set [1] is recorded as 29.6. In addition, the “MDCK-BCRP: Papp A-B” value in data set [1] is given as 1.25 10^−6 cm/s.

Consider `CCCNc1ccn2c(C(=O)Nc3cc(-c4noc([C@H]5C[C@@H]5F)n4)ccc3C)cnc2c1` [Compound I-304], for which the IC50 on PDGFRα, on CSF-1R and on wtKIT was at most 50 nM throughout. Further, the “Solubility (μM)” value in the data set “Kinetic solubility assay” is given as “**** (a solubility less than or equal to 2 μM)”. Further, the “MDCK-BCRP: Efflux Ratio” value in data set [1] was found to be 3.43. Also, the “MDCK-BCRP: Papp A-B” value in data set [1] is recorded as 5.05 10^−6 cm/s.

With `Cc1ccc(-c2noc(CO)n2)cc1NC(=O)c1cnc2ccccn12` [Compound I-337], the IC50 at PDGFRα is 50 to 500 nM; against CSF-1R, 50 to 500 nM; on wtKIT, at most 50 nM. Moreover, the “Solubility (μM)” value in the data set “Kinetic solubility assay” is on record as “* (a solubility greater than 50 μM)”. In addition, the “MDCK-BCRP: Efflux Ratio” value in data set [1] turned out to be 4.71. Moreover, the “MDCK-BCRP: Papp A-B” value in data set [1] is on record as 3.73 10^−6 cm/s.

In the case of `O=C(Nc1cc(-c2noc([C@H]3C[C@@H]3F)n2)ccc1Br)c1cnc2ccccn12` [Compound I-340], the IC50 on PDGFRα was 50 to 500 nM; against CSF-1R it was at most 50 nM; on wtKIT it was at most 50 nM. In addition, in “Kinetic solubility assay”, the “Solubility (μM)” value is “**** (a solubility less than or equal to 2 μM)”. Also, in data set [1], the “MDCK-BCRP: Efflux Ratio” value is listed as 0.28. Further, the “MDCK-BCRP: Papp A-B” value in data set [1] was 80.4 10^−6 cm/s.

On to `Cc1ccc(-c2noc(C3CC(F)C3)n2)cc1NC(=O)c1cnc2ccccn12` (stereo not drawn) [Compound I-381], for which the concentration for half-maximal inhibition (IC50) is 50 to 500 nM on PDGFRα, at most 50 nM at CSF-1R and at most 50 nM at wtKIT. Besides, in the data set “Kinetic solubility assay”, the “Solubility (μM)” value is reported as “**** (a solubility less than or equal to 2 μM)”. In data set [1], the “MDCK-BCRP: Efflux Ratio” value is 1.25. In addition, the “MDCK-BCRP: Papp A-B” value in data set [1] was 10.1 10^−6 cm/s.

As to `Cc1ccc(-c2noc(CC3CC(F)(F)C3)n2)cc1NC(=O)c1cnc2ccccn12` [Compound I-124], the IC50 at PDGFRα was 50 to 500 nM; against CSF-1R, at most 50 nM; at wtKIT it was at most 50 nM. The “Solubility (μM)” value in “Kinetic solubility assay” is “**** (a solubility less than or equal to 2 μM)”. Besides, the “MDCK-BCRP: Efflux Ratio” value in data set [1] came to 1.14. For the same molecule, in data set [1], the “MDCK-BCRP: Papp A-B” value is on record as 9.07 10^−6 cm/s.

On to `Cc1ccc(-c2noc(C3CCS(=O)(=O)N3)n2)cc1NC(=O)c1cnc2ccccn12` (racemic) [Compound I-330], for which the IC50 was 50 to 500 nM against PDGFRα, at most 50 nM against CSF-1R and at most 50 nM on wtKIT. Besides, in “Kinetic solubility assay”, the “Solubility (μM)” value is “** (a solubility greater than 10 μM and less than or equal to 50 μM)”. In data set [1], the “MDCK-BCRP: Efflux Ratio” value worked out at 24.9. For the same molecule, in data set [1], the “MDCK-BCRP: Papp A-B” value is on record as 1.28 10^−6 cm/s.

In the case of `Cc1nc(-c2ccc(C)c(NC(=O)c3cnc4ccccn34)c2)no1` [Compound I-360], the figures for the IC50 against PDGFRα, against CSF-1R and at wtKIT were 500 to 5000 nM, 500 to 5000 nM and at most 50 nM, respectively. For the same molecule, in “Kinetic solubility assay”, the “Solubility (μM)” value was “** (a solubility greater than 10 μM and less than or equal to 50 μM)”. In addition, the “MDCK-BCRP: Efflux Ratio” value in data set [1] came out at 1.52. The “MDCK-BCRP: Papp A-B” value in data set [1] is 9.54 10^−6 cm/s.

For `Cc1ccc(-c2noc(C3CCC(F)C3)n2)cc1NC(=O)c1cnc2ccccn12` (racemic) [Compound I-319], the IC50 against PDGFRα was 50 to 500 nM; on CSF-1R it was at most 50 nM; at wtKIT it was at most 50 nM. Further, the “Solubility (μM)” value in the data set “Kinetic solubility assay” was “*** (a solubility greater than 2 μM and less than or equal to 10 μM)”. For the same molecule, the “MDCK-BCRP: Efflux Ratio” value in data set [1] was determined as 1.02. Also, the “MDCK-BCRP: Papp A-B” value in data set [1] is given as 13.1 10^−6 cm/s.

As usually defined, the IC50 is the point on the concentration scale where inhibition reaches its midpoint.

The values are drawn from patent publication US20240254119A1 (THIRD HARMONIC BIO, INC., priority 2022, published 2024).
